The data set can be described thus: Partition of cannabinoids between degummed cannabis oil miscella and water/ethanol/base extraction solvent in a fiber conduit contactor. The arrangement: scale not given here. It is filed as physicochemical. An excerpt:
Degummed miscella from Example 1A were used to investigate the extraction of acid cannabinoids into a water/ethanol solvent using a fiber conduit contactor. Bases tested included sodium bicarbonate (NaHCO3), sodium carbonate (Na2CO3), potassium bicarbonate (KHCO3), and potassium carbonate (K2CO3). The hardness difference between a sodium and potassium radii (smaller radii are harder, larger radii are softer) creates a variation in the property of the resulting soaps. Sodium salts give a so-called “harder” soap that is more likely to be rejected from the crude miscella. Switching from bicarbonate to carbonate has two effects: (1) higher ion count in solution, thereby increasing ionic strength/polarity; and (2) increasing the pH by approximately 1 pH unit for the same wt % solution. This increased polarity can be used to enforce selectivity of the desired compounds.
As shown in the results below, there are multiple options for extracting specific combinations of cannabinoids. The bicarbonate bases gave a preference to acid cannabinoids, whereas the stronger carbonate bases were able to increase the total mass transfer. These parameters can be used to control the outflow product streams. The partition coefficients for various combinations are summarized in Table 3 and can be used to determine the optimal extraction solvent for a target compound or goal.
In Table 3 above, the Examples are ordered by decreasing polarity from top to bottom. A lower number specifies a preference for extraction and a high number specifies a preference to remain in the neutral oil. Blank squares are where coefficients could not be calculated.

The mark [1] stands for this setting: Base K2CO3, H2O/EtOH/Base (wt %) 68.3/29.1/2.5.
[2] abbreviates: Base K2CO3, H2O/EtOH/Base (wt %) 77.9/19.5/2.6.
[3] abbreviates: Base K2CO3, H2O/EtOH/Base (wt %) 82.8/14.7/2.5.
[4] abbreviates: Base K2CO3, H2O/EtOH/Base (wt %) 87.5/10/2.5.
Setting [5] is: Base KHCO3, H2O/EtOH/Base (wt %) 68.1/29.4/2.6.
Where [6] appears, read: Base KHCO3, H2O/EtOH/Base (wt %) 73.1/24.3/2.6.
Setting [7] is: Base Na2CO3, H2O/EtOH/Base (wt %) 68.4/29.1/2.5.
[8] abbreviates: Base Na2CO3, H2O/EtOH/Base (wt %) 73.2/24.2/2.6.
[9] abbreviates: Base Na2CO3, H2O/EtOH/Base (wt %) 77.6/19.9/2.5.
The mark [10] stands for this setting: Base Na2CO3, H2O/EtOH/Base (wt %) 82.9/14.5/2.6.
The mark [11] stands for this setting: Base Na2CO3, H2O/EtOH/Base (wt %) 87.8/9.7/2.6.
Where [12] appears, read: Base NaHCO3, H2O/EtOH/Base (wt %) 67.8/29.7/2.4, lower = preference for extraction, higher = remains in neutral oil.
[13] abbreviates: Base NaHCO3, H2O/EtOH/Base (wt %) 72.9/24.6/2.5.
Setting [14] is: Base NaHCO3, H2O/EtOH/Base (wt %) 77.9/19.6/2.5.
The mark [15] stands for this setting: Base NaHCO3, H2O/EtOH/Base (wt %) 81.2/16.3/2.5.
[16] abbreviates: Base NaHCO3, H2O/EtOH/Base (wt %) 879./9.7/2.4.
Where [17] appears, read: Base KHCO3, H2O/EtOH/Base (wt %) 78.0/19.5/2.5.
Setting [18] is: Base KHCO3, H2O/EtOH/Base (wt %) 82.7/14.8/2.5.
Where [19] appears, read: Base NaHCO3, H2O/EtOH/Base (wt %) 69.9/29.9/0.25.
Setting [20] is: Base K2CO3, H2O/EtOH/Base (wt %) 73.0/24.5/2.5.
The mark [21] stands for this setting: Base NaHCO3, H2O/EtOH/Base (wt %) 68.4/29.5/2.0.
The mark [22] stands for this setting: Base NaHCO3, H2O/EtOH/Base (wt %) 69.0/29.6/1.5.

In the case of `CCCCCc1cc2c(c(O)c1C(=O)O)[C@@H]1C=C(C)CC[C@H]1C(C)(C)O2` [THCA, tetrahydrocannabinolic acid], the Partition coefficient is 0.28 under setting [1]; −0.09 under setting [2]; −0.05 under setting [3]; 0.15 under setting [4]; 1.26 under setting [5]; 1.76 under setting [6]. The Partition coefficient reads like this: under setting [7], −0.18; under setting [8], −0.02; under setting [9], −0.02; under setting [10], 0.06; under setting [11], 0.41; under setting [12], 0.91. For the same compound, the Partition coefficient under setting [13] is 1, the Partition coefficient under setting [14] is 1.33, the Partition coefficient under setting [15] is given as 1.16 and the Partition coefficient under setting [16] is 1.12.

As for `CCCCCc1cc(O)c(C/C=C(\C)CCC=C(C)C)c(O)c1C(=O)O` [CBGA, cannabigerolic acid], the Partition coefficient by setting is: under setting [1], 0.15; under setting [2], −0.19; under setting [3], −0.15; under setting [4], −0.1; under setting [5], 0.33; under setting [6], 0.72. Further, the Partition coefficient reads like this: under setting [17], 1.4; under setting [18], 1.61; under setting [7], −0.57; under setting [8], −0.47; under setting [9], −0.5; under setting [10], −0.44. Moreover, the Partition coefficient under setting [11] is −0.14; the Partition coefficient under setting [12] came out at 0.46; the Partition coefficient under setting [13] is given as 0.76; the Partition coefficient under setting [14] amounted to 1.2; the Partition coefficient under setting [15] is recorded as 1.19; the Partition coefficient under setting [16] was 1.1.

Turning to `CCCCCc1cc(O)c2c(c1)OC(C)(C)[C@@H]1CCC(C)=C[C@@H]21` [THC, tetrahydrocannabinol, reference compound], the Partition coefficient under setting [1] stood at 0.59; the Partition coefficient under setting [2] was determined as 0.1; the Partition coefficient under setting [3] worked out at 0.09; the Partition coefficient under setting [4] worked out at 0.13; the Partition coefficient under setting [7] is given as 0.22; the Partition coefficient under setting [8] was determined as 0.2. Moreover, the Partition coefficient is, setting by setting: under setting [9], 0.1; under setting [10], 0.13; under setting [11], 0.47; under setting [12], 0.77; under setting [13], 1.03; under setting [14], 1.43. The Partition coefficient is on record as 1.28 under setting [15] and 1.17 under setting [16].

For the compound `CCCCCc1cc(O)c2c(c1)OC(C)(CCC=C(C)C)C=C2` (stereo not shown) [CBC, cannabichromene], the Partition coefficient is, setting by setting: under setting [1], 0.6; under setting [2], 0.23; under setting [3], 0.23; under setting [4], 0.16; under setting [7], −0.2; under setting [8], −0.16. Further, the Partition coefficient is −0.21 under setting [9]; −0.14 under setting [10]; 0.22 under setting [11]; 0.54 under setting [12]; 0.83 under setting [13]; 1.42 under setting [14]. In addition, the Partition coefficient reads like this: under setting [15], 1.33; under setting [16], 1.21.

Regarding `CCCCCc1cc(O)c(C/C=C(\C)CCC=C(C)C)c(O)c1` [CBG, cannabigerol], the Partition coefficient is 0.01 under setting [2]; 0.05 under setting [3]; −0.07 under setting [4]; 1.58 under setting [7]; 1.6 under setting [8]; 1.53 under setting [9]. Also, the Partition coefficient by setting is: under setting [10], 1.59; under setting [11], 1.91; under setting [12], 0.46; under setting [19], 2.62; under setting [13], 0.76.

For the compound `CCCCCc1cc2c(c(O)c1C(=O)O)C=CC(C)(CCC=C(C)C)O2` (stereo not shown) [CBCA, cannabichromenic acid], the Partition coefficient is 0.22 under setting [1]; −0.29 under setting [2]; −0.25 under setting [3]; −0.2 under setting [4]; 2.09 under setting [5]; 2.59 under setting [6]. Further, the Partition coefficient under setting [7] stood at 0.93; the Partition coefficient under setting [8] is 1.09; the Partition coefficient under setting [9] is 1.08; the Partition coefficient under setting [10] is given as 1.15; the Partition coefficient under setting [11] came to 1.48; the Partition coefficient under setting [12] was 0.57. The Partition coefficient runs as follows: under setting [13], 1.14; under setting [15], 1.24; under setting [16], 1.17.

As to `C=C(C)[C@@H]1CCC(C)=C[C@H]1c1c(O)cc(CCCCC)c(C(=O)O)c1O` [CBDA, cannabidiolic acid], the Partition coefficient reads like this: under setting [1], 0.04; under setting [20], 0.45; under setting [2], −0.16; under setting [3], −0.08; under setting [4], 0; under setting [5], −1.02. The Partition coefficient by setting is: under setting [6], −0.59; under setting [17], 0.04; under setting [18], 0.21; (Base KHCO3, H2O/EtOH/Base (wt %) 86.3/11.3/2.5) 0.19; under setting [7], −2.37; under setting [8], −2.22. The Partition coefficient is on record as −2.22 under setting [9]; −2.11 under setting [10]; −1.75 under setting [11]; 0.43 under setting [12]; −0.19 under setting [21]; 0.1 under setting [22]. For the same compound, the Partition coefficient by setting is: (Base NaHCO3, H2O/EtOH/Base (wt %) 69.2/29.8/1.0) 0.22; under setting [19], 0.38; under setting [13], 0.68; under setting [14], 1.09; under setting [15], 1.05; under setting [16], 0.96.

As for `C=C(C)[C@@H]1CCC(C)=C[C@H]1c1c(O)cc(CCCCC)cc1O` [CBD, cannabidiol, reference compound], the Partition coefficient under setting [1] turned out to be 0.55; the Partition coefficient under setting [20] is 0.87; the Partition coefficient under setting [2] was 0.19; the Partition coefficient under setting [3] worked out at 0.19; the Partition coefficient under setting [4] is 0.1; the Partition coefficient under setting [5] worked out at 0.6. For the same compound, the Partition coefficient is, setting by setting: under setting [6], 1.06; under setting [17], 1.59; under setting [18], 1.43; under setting [7], −0.87; under setting [8], −0.86; under setting [9], −0.94. Further, the Partition coefficient under setting [10] is recorded as −0.9; the Partition coefficient under setting [11] is on record as −0.55; the Partition coefficient under setting [12] was found to be 0.48; the Partition coefficient under setting [21] came out at 1.4; the Partition coefficient under setting [22] was found to be 1.86; the Partition coefficient under setting [13] is listed as 0.78. The Partition coefficient by setting is: under setting [14], 1.29; under setting [15], 1.25; under setting [16], 1.14.

The values above are taken from patent US11766628B2, “Purification and extraction of cannabinoids” (CHEMTOR, LP, priority 2020, dated 2023).
